Several values for one entry are separate records, joined by “and”; a condition that tells them apart may be missing. Equal values may be shown once. Where a SMILES comes first, the peptide text is derived from it. Bridges are numbered along the chain shown (N, C = ends). [ ]: non-standard residue; d: D form. Dab = NCC[C@H](N)C(=O)O; Dap = NC[C@H](N)C(=O)O
How the values were obtained:
[1] = biological target: hα3β2 nAChR (Homo sapiens, UniProt P17787+P32297); assay: cell-based
[2] = biological target: hα9α10 nAChR (Homo sapiens, UniProt Q9GZZ6+Q9UGM1); assay: cell-based; settings: for IC50: IC50, inhibition of ACh-evoked currents at hα9α10 nAChRs
Chain of hα9α10 nAChR (Q9UGM1 26-479 limits assumed): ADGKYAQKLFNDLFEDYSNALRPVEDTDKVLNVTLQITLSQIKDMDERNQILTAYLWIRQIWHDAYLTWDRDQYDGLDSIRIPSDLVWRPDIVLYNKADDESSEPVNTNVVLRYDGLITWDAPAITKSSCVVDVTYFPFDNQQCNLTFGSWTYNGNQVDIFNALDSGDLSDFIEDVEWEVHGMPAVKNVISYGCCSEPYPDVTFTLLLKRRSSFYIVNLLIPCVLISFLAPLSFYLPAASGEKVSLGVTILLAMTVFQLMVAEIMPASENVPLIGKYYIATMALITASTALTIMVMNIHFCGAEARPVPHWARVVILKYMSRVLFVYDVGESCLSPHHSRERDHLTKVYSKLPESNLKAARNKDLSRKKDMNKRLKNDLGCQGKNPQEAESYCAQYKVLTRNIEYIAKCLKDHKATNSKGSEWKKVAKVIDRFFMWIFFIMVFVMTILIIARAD
Chain of hα9α10 nAChR (Q9GZZ6 25-450 limits assumed): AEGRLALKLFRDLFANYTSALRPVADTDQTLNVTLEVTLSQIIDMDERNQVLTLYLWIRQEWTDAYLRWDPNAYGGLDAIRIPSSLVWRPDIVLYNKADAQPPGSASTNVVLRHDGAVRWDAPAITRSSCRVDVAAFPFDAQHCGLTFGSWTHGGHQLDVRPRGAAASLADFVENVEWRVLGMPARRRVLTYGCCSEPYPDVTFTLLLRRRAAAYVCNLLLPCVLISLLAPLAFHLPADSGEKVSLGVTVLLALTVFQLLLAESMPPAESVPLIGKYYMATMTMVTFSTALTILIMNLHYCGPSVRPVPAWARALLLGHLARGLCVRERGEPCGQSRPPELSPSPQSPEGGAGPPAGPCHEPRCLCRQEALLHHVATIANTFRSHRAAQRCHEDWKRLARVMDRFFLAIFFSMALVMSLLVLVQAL

[3] = biological target: hα7 nAChR (Homo sapiens, UniProt P36544); assay: cell-based
Chain of hα7 nAChR (P36544 23-502 limits assumed): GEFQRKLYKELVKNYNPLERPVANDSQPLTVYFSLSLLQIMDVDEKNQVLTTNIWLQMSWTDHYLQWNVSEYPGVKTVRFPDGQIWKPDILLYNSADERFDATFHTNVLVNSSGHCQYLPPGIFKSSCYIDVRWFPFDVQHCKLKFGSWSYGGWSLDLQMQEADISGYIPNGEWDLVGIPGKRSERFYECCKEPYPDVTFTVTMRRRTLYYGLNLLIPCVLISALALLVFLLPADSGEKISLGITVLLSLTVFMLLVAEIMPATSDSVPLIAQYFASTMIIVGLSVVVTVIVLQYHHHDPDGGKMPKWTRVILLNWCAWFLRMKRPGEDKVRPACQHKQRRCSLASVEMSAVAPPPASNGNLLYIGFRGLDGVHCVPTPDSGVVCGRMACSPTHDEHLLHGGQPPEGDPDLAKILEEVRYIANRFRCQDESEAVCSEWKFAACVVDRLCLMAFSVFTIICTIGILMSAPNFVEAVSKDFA

[4] = biological target: hα3β4 nAChR (Homo sapiens, UniProt P30926+P32297); format: cell-based
Chain of hα3β4 nAChR (P32297 32-505 limits assumed): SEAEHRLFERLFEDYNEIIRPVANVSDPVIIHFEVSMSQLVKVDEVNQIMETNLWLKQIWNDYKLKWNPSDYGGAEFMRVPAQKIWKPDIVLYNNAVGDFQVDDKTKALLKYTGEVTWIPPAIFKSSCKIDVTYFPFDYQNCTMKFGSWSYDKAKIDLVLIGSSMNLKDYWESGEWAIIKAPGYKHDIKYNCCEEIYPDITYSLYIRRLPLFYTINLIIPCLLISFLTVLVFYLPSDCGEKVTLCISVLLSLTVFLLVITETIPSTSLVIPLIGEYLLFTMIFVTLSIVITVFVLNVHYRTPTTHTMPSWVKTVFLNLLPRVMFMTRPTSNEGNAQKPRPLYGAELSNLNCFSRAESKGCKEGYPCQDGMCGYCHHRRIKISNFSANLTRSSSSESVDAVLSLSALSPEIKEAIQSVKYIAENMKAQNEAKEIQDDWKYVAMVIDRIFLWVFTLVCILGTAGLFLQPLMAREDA
Chain of hα3β4 nAChR (P30926 22-498 limits assumed): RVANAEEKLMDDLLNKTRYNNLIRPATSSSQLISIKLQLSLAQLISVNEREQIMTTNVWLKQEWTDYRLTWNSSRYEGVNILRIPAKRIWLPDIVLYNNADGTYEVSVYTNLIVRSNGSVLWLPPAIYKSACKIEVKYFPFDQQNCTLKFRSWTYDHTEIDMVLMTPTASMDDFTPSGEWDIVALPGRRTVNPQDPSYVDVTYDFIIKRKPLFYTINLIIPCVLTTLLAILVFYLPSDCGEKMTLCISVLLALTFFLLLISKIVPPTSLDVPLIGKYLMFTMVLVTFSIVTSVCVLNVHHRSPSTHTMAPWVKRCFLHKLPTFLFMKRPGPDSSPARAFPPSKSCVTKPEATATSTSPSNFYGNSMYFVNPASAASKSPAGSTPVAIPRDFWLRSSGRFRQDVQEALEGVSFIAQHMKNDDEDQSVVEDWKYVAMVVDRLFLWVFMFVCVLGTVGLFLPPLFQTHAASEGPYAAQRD

[5] = biological target: hα4β4 nAChR (Homo sapiens, UniProt P30926+P43681); format: cell-based
Chain of hα4β4 nAChR (P43681 29-627 limits assumed): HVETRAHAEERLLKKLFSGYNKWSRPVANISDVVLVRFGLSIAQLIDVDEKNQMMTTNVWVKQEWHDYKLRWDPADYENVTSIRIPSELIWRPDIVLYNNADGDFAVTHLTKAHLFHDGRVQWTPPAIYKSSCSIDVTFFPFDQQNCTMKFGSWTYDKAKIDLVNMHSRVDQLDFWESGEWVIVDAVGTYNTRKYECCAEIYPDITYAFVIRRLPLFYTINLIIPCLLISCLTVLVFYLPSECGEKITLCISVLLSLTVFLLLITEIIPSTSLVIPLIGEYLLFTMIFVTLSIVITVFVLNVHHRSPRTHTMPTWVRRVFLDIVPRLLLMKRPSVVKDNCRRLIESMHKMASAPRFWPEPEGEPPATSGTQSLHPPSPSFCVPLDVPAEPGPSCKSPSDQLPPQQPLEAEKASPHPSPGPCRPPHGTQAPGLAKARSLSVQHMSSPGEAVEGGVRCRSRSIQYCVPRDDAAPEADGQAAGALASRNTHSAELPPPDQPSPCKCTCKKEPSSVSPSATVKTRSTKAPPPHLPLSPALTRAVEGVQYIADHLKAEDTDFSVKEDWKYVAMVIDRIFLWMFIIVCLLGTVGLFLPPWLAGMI
Chain of hα4β4 nAChR (P30926 22-498 limits assumed): as the sequence (P30926 22-498 limits assumed) above

[6] = biological target: hα4β2 nAChR (Homo sapiens, UniProt P17787+P43681); format: cell-based
Chain of hα4β2 nAChR (P43681 29-627 limits assumed): as the sequence (P43681 29-627 limits assumed) above
Chain of hα4β2 nAChR (P17787 26-502 limits assumed): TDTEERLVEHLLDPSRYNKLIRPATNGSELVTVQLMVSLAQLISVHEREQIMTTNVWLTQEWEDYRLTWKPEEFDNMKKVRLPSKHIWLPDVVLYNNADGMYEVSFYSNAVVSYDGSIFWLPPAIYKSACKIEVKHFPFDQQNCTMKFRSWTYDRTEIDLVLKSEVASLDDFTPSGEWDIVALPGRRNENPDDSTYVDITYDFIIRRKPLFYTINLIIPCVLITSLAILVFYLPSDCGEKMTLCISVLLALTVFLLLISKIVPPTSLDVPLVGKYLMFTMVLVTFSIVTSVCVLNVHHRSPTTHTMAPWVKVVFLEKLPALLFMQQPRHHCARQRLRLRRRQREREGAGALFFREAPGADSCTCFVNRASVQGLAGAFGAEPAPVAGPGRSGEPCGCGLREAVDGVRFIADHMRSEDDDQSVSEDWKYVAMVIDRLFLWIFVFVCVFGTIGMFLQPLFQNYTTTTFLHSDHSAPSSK

Chain of hα3β2 nAChR (P32297 32-505 limits assumed): as the sequence (P32297 32-505 limits assumed) above
Chain of hα3β2 nAChR (P17787 26-502 limits assumed): as the sequence (P17787 26-502 limits assumed) above

CC(C)C[C@@H]1NC(=O)[C@H](CCC(=O)O)NC(=O)[C@@H]2CCCN2C(=O)[C@H](Cc2c[nH]cn2)NC(=O)[C@H](CC(N)=O)NC(=O)[C@H](C(C)C)NC(=O)[C@H](CN)NC(=O)[C@@H]2CSSC[C@H](NC(=O)CN)C(=O)N[C@@H](CSSC[C@@H](C(N)=O)NC1=O)C(=O)N[C@@H](CN)C(=O)N[C@@H](Cc1c[nH]cn1)C(=O)N1CCC[C@H]1C(=O)N[C@@H](C)C(=O)N2 [PeIA[S4Dap, S9Dap]] (H-GCC[Dap]HPAC[Dap]VNHPELC-NH2; disulfide 2-8, 3-16)
IC50 [1]: 32.8 nM | Enhancement of activity (IC50) at hα9α10 relative to PeIA [2]: ~24 fold | Potency at hα9α10 relative to dimeric PeIA [2]: approximately two-fold | IC50 [2]: 0.93 nM | IC50 [3]: 162 nM

CC(C)C[C@@H]1NC(=O)[C@H](CCC(=O)O)NC(=O)[C@@H]2CCCN2C(=O)[C@H](Cc2c[nH]cn2)NC(=O)[C@H](CC(N)=O)NC(=O)[C@H](C(C)C)NC(=O)[C@H](CO)NC(=O)[C@@H]2CSSC[C@H](NC(=O)CN)C(=O)N[C@@H](CSSC[C@@H](C(N)=O)NC1=O)C(=O)N[C@@H](CN)C(=O)N[C@@H](Cc1c[nH]cn1)C(=O)N1CCC[C@H]1C(=O)N[C@@H](C)C(=O)N2 [PeIA[S4Dap]] (H-GCC[Dap]HPACSVNHPELC-NH2; disulfide 2-8, 3-16)
Enhancement of activity (IC50) at hα9α10 relative to PeIA [2]: ~13 fold | IC50 [2]: 1.74 nM

CC(C)C[C@@H]1NC(=O)[C@H](CCC(=O)O)NC(=O)[C@@H]2CCCN2C(=O)[C@H](Cc2c[nH]cn2)NC(=O)[C@H](CC(N)=O)NC(=O)[C@H](C(C)C)NC(=O)[C@H](CO)NC(=O)[C@@H]2CSSC[C@H](NC(=O)CN)C(=O)N[C@@H](CSSC[C@@H](C(N)=O)NC1=O)C(=O)N[C@@H](CCN)C(=O)N[C@@H](Cc1c[nH]cn1)C(=O)N1CCC[C@H]1C(=O)N[C@@H](C)C(=O)N2 [PeIA[S4Dab]] (H-GCC[Dab]HPACSVNHPELC-NH2; disulfide 2-8, 3-16)
Enhancement of activity (IC50) at hα9α10 relative to PeIA [2]: ~ 4 fold | IC50 [2]: 5.32 nM and 5.3 nM

CC(C)C[C@@H]1NC(=O)[C@H](CCC(=O)O)NC(=O)[C@@H]2CCCN2C(=O)[C@H](Cc2c[nH]cn2)NC(=O)[C@H](CC(N)=O)NC(=O)[C@H](C(C)C)NC(=O)[C@H](CN)NC(=O)[C@@H]2CSSC[C@H](NC(=O)CN)C(=O)N[C@@H](CSSC[C@@H](C(N)=O)NC1=O)C(=O)N[C@@H](CO)C(=O)N[C@@H](Cc1c[nH]cn1)C(=O)N1CCC[C@H]1C(=O)N[C@@H](C)C(=O)N2 [PeIA[S9Dap]] (H-GCCSHPAC[Dap]VNHPELC-NH2; disulfide 2-8, 3-16)
Enhancement of activity (IC50) at hα9α10 relative to PeIA [2]: ~5 fold | IC50 [2]: 4.67 nM

CC(C)C[C@@H]1NC(=O)[C@H](CCC(=O)O)NC(=O)[C@@H]2CCCN2C(=O)[C@H](Cc2c[nH]cn2)NC(=O)[C@H](CC(N)=O)NC(=O)[C@H](C(C)C)NC(=O)[C@H](CO)NC(=O)[C@@H]2CSSC[C@H](NC(=O)CN)C(=O)N[C@@H](CSSC[C@@H](C(N)=O)NC1=O)C(=O)N[C@@H](CO)C(=O)N[C@@H](Cc1c[nH]cn1)C(=O)N1CCC[C@H]1C(=O)N[C@@H](C)C(=O)N2 [PeIA] (H-GCCSHPACSVNHPELC-NH2; disulfide 2-8, 3-16)
Inhibition of ACh-evoked currents at hα3β4 [4]: < 1% | Inhibition of ACh-evoked currents at hα4β4 [5]: < 1% | Inhibition of ACh-evoked currents at hα4β2 [6]: < 1%

CC(C)C[C@@H]1NC(=O)[C@H](CCC(=O)O)NC(=O)[C@@H]2CCCN2C(=O)[C@H](Cc2cnc[nH]2)NC(=O)[C@H](CC(N)=O)NC(=O)[C@H](C(C)C)NC(=O)[C@H](CO)NC(=O)[C@@H]2CSSC[C@H](NC(=O)CN)C(=O)N[C@@H](CSSC[C@@H](C(N)=O)NC1=O)C(=O)N[C@@H](CO)C(=O)N[C@@H](Cc1cnc[nH]1)C(=O)N1CCC[C@H]1C(=O)N[C@@H](C)C(=O)N2 [PeIA] (H-GCCSHPACSVNHPELC-NH2; disulfide 2-8, 3-16)
IC50 [1]: 59.8 nM
